Experimental data published in PubChem BioAssay AID1259407 (Chemical Carcinogenesis Research Information System (CCRIS), 2018).
Calls of active or inactive are those of the source. How the calls were made is not given here.

System: CCRIS mutagenicity, Ames/micronucleus/aberration tests
Assay: CCRIS mutagenicity studies
[1] = Test System: AMES SALMONELLA TYPHIMURIUM, Strain/Indicator: TA98, Metabolic Activation: NONE, Method: STANDARD PLATE
[2] = Test System: AMES SALMONELLA TYPHIMURIUM, Strain/Indicator: TA98, Metabolic Activation: RAT, LIVER, S-9, AROCLOR 1254, Method: STANDARD PLATE
[3] = Test System: AMES SALMONELLA TYPHIMURIUM, Strain/Indicator: TA100, Metabolic Activation: NONE, Method: PREINCUBATION
[4] = Test System: AMES SALMONELLA TYPHIMURIUM, Strain/Indicator: TA100, Metabolic Activation: NONE, Method: STANDARD PLATE
[5] = Test System: AMES SALMONELLA TYPHIMURIUM, Strain/Indicator: TA100, Metabolic Activation: RAT, LIVER, S-9, AROCLOR 1254, Method: STANDARD PLATE

Measured: mutagenic call

Cc1cc(N=Nc2ccccc2C)ccc1N
active: Test System: AMES SALMONELLA TYPHIMURIUM, Strain/Indicator: TA98, Metabolic Activation: HAMSTER, LIVER, S-9, AROCLOR 1254, Method: STANDARD PLATE active; positive | Test System: AMES SALMONELLA TYPHIMURIUM, Strain/Indicator: TA98, Metabolic Activation: HAMSTER, LIVER, S-9, Method: PREINCUBATION (PRIVAL METHOD) active; positive | Test System: AMES SALMONELLA TYPHIMURIUM, Strain/Indicator: TA98, Metabolic Activation: RAT LIVER S-9, Method: PREINCUBATION active; positive | Test System: AMES SALMONELLA TYPHIMURIUM, Strain/Indicator: TA98, Metabolic Activation: RAT LIVER, MICROSOMES, AROCLOR 1254, Method: PREINCUBATION active; positive | Test System: AMES SALMONELLA TYPHIMURIUM, Strain/Indicator: TA98, Metabolic Activation: RAT, LIVER, MICROSOMES, AROCLOR 1254, Method: PREINCUBATION active; positive | Test System: AMES SALMONELLA TYPHIMURIUM, Strain/Indicator: TA98, Metabolic Activation: RAT, LIVER, S-9, AROCLOR 1254, HAMSTER, LIVER, S-9, AROCLOR 1254, Method: STANDARD PLATE active; positive | [2] active; positive | Test System: AMES SALMONELLA TYPHIMURIUM, Strain/Indicator: TA98, Metabolic Activation: RAT, LIVER, S-9, KC500 OR PHENOBARBITAL, Method: LIQUID SUSPENSION active; positive | Test System: AMES SALMONELLA TYPHIMURIUM, Strain/Indicator: TA98, Metabolic Activation: RAT, LIVER, S-9, PCB, Method: PREINCUBATION active; positive | Test System: AMES SALMONELLA TYPHIMURIUM, Strain/Indicator: TA98, Metabolic Activation: RAT, LIVER, S-9, POLYCHLORINATED BIPHENYLS, Method: PREINCUBATION active; positive | Test System: AMES SALMONELLA TYPHIMURIUM, Strain/Indicator: TA100, Metabolic Activation: HAMSTER, LIVER, S-9, AROCLOR 1254, Method: STANDARD PLATE active; positive | Test System: AMES SALMONELLA TYPHIMURIUM, Strain/Indicator: TA100, Metabolic Activation: HAMSTER, LIVER, S-9, Method: PREINCUBATION (PRIVAL METHOD) active; positive | Test System: AMES SALMONELLA TYPHIMURIUM, Strain/Indicator: TA100, Metabolic Activation: RAT LIVER S-9, Method: PREINCUBATION active; positive | Test System: AMES SALMONELLA TYPHIMURIUM, Strain/Indicator: TA100, Metabolic Activation: RAT, LIVER, S-9, AROCLOR 1254, HAMSTER, LIVER, S-9, AROCLOR 1254, Method: STANDARD PLATE active; positive | [5] active; positive | Test System: AMES SALMONELLA TYPHIMURIUM, Strain/Indicator: TA100, Metabolic Activation: RAT, LIVER, S-9, KC500 OR PHENOBARBITAL, Method: LIQUID SUSPENSION active; positive | Test System: AMES SALMONELLA TYPHIMURIUM, Strain/Indicator: TA100, Metabolic Activation: RAT, LIVER, S-9, PCB, Method: PREINCUBATION active; positive | Test System: AMES SALMONELLA TYPHIMURIUM, Strain/Indicator: TA100, Metabolic Activation: RAT, LIVER, S-9, POLYCHLORINATED BIPHENYLS, Method: PREINCUBATION active; positive | Test System: AMES SALMONELLA TYPHIMURIUM, Strain/Indicator: TA1538, Metabolic Activation: RAT, LIVER, S-9, AROCLOR 1254, HAMSTER, LIVER, S-9, AROCLOR 1254, Method: STANDARD PLATE active; positive | Test System: AMES SALMONELLA TYPHIMURIUM, Strain/Indicator: TA1538, Metabolic Activation: RAT, LIVER, S-9, AROCLOR 1254, Method: STANDARD PLATE active; positive | Test System: MOUSE LYMPHOMA, Strain/Indicator: L5178Y (TK+/TK-), Metabolic Activation: RAT, LIVER, S-9, AROCLOR 1254, Method: SUSPENSION/PLATE active; positive. reevaluation of results: positive
inactive: Test System: AMES SALMONELLA TYPHIMURIUM, Strain/Indicator: TA98, Metabolic Activation: NONE, Method: PREINCUBATION inactive; negative | [1] inactive; negative | Test System: AMES SALMONELLA TYPHIMURIUM, Strain/Indicator: TA98, Metabolic Activation: RAT LIVER, CYTOSOL, AROCLOR 1254, Method: PREINCUBATION inactive; negative | Test System: AMES SALMONELLA TYPHIMURIUM, Strain/Indicator: TA98, Metabolic Activation: RAT, LIVER, MICROSOMES, O-AMINOAZOTOLUENE, Method: PREINCUBATION inactive; negative | Test System: AMES SALMONELLA TYPHIMURIUM, Strain/Indicator: TA98, Metabolic Activation: RAT, LIVER, MICROSOMES, Method: PREINCUBATION inactive; negative | [3] inactive; negative | [4] inactive; negative | Test System: AMES SALMONELLA TYPHIMURIUM, Strain/Indicator: TA1538, Metabolic Activation: NONE, Method: STANDARD PLATE inactive; negative | Test System: Mouse lymphoma, Strain/Indicator: L5178Y (tk+/tk-), Metabolic Activation: None, Method: Suspension/plate inactive; negative

O=C(Cl)c1ccccc1[N+](=O)[O-]
inactive: Test System: AMES SALMONELLA TYPHIMURIUM, Strain/Indicator: TA1535, Metabolic Activation: HAMSTER, LIVER, S-9, AROCLOR 1254 (10%), Method: PREINCUBATION inactive; negative | Test System: AMES SALMONELLA TYPHIMURIUM, Strain/Indicator: TA1535, Metabolic Activation: NONE, Method: PREINCUBATION inactive; negative | Test System: AMES SALMONELLA TYPHIMURIUM, Strain/Indicator: TA1535, Metabolic Activation: RAT, LIVER, S-9, AROCLOR 1254 (10%), Method: PREINCUBATION inactive; negative
active: Test System: AMES SALMONELLA TYPHIMURIUM, Strain/Indicator: TA97, Metabolic Activation: HAMSTER, LIVER, S-9, AROCLOR 1254 (10%), Method: PREINCUBATION active; positive | Test System: AMES SALMONELLA TYPHIMURIUM, Strain/Indicator: TA97, Metabolic Activation: NONE, Method: PREINCUBATION active; positive | Test System: AMES SALMONELLA TYPHIMURIUM, Strain/Indicator: TA97, Metabolic Activation: RAT, LIVER, S-9, AROCLOR 1254 (10%), Method: PREINCUBATION active; positive | Test System: AMES SALMONELLA TYPHIMURIUM, Strain/Indicator: TA98, Metabolic Activation: HAMSTER, LIVER, S-9, AROCLOR 1254 (10%), Method: PREINCUBATION active; positive | Test System: AMES SALMONELLA TYPHIMURIUM, Strain/Indicator: TA98, Metabolic Activation: RAT, LIVER, S-9, AROCLOR 1254 (10%), Method: PREINCUBATION active; positive | Test System: AMES SALMONELLA TYPHIMURIUM, Strain/Indicator: TA98, Metabolic Activation: RAT, LIVER, S-9, KANECHLOR 500, Method: PREINCUBATION active; positive | Test System: AMES SALMONELLA TYPHIMURIUM, Strain/Indicator: TA100, Metabolic Activation: HAMSTER, LIVER, S-9, AROCLOR 1254 (10%), Method: PREINCUBATION active; positive | [3] active; positive | Test System: AMES SALMONELLA TYPHIMURIUM, Strain/Indicator: TA100, Metabolic Activation: RAT, LIVER, S-9, AROCLOR 1254 (10%), Method: PREINCUBATION active; positive | Test System: AMES SALMONELLA TYPHIMURIUM, Strain/Indicator: TA100, Metabolic Activation: RAT, LIVER, S-9, KANECHLOR 500, Method: PREINCUBATION active; positive

CC(=O)N(O)c1ccc(Cl)c(Cl)c1
inactive: Test System: AMES SALMONELLA TYPHIMURIUM, Strain/Indicator: TA97, Metabolic Activation: NONE, Method: STANDARD PLATE inactive; negative | Test System: AMES SALMONELLA TYPHIMURIUM, Strain/Indicator: TA97, Metabolic Activation: RAT, LIVER, S-9, AROCLOR 1254, Method: STANDARD PLATE inactive; negative | [1] inactive; negative | [2] inactive; negative | [4] inactive; negative | [5] inactive; negative | Test System: AMES SALMONELLA TYPHIMURIUM, Strain/Indicator: TA104, Metabolic Activation: NONE, Method: STANDARD PLATE inactive; negative | Test System: AMES SALMONELLA TYPHIMURIUM, Strain/Indicator: TA104, Metabolic Activation: RAT, LIVER, S-9, AROCLOR 1254, Method: STANDARD PLATE inactive; negative
